In US9669035B2, “Combinations comprising PDE 2 inhibitors such as 1-aryl-4-methyl-[1,2,4]triazolo-[4,3-A]]quinoxaline compounds and PDE 10 inhibitors for use in the treatment of neurological of metabolic disorders” (Janssen Pharmaceutica NV, priority 2012, dated 2017):
Read-outs that look alike come from different tables or passages of the source.

How the values were obtained:
[1] = target: Rat recombinant PDE10A (rPDE10A2) (Rattus norvegicus (Rat), UniProt Q9QYJ6); assay: In vitro assay PDE10A (SPA, 3H-cAMP); type: biochemical
Chain of Rat recombinant PDE10A (rPDE10A2) (Q9QYJ6 whole entry): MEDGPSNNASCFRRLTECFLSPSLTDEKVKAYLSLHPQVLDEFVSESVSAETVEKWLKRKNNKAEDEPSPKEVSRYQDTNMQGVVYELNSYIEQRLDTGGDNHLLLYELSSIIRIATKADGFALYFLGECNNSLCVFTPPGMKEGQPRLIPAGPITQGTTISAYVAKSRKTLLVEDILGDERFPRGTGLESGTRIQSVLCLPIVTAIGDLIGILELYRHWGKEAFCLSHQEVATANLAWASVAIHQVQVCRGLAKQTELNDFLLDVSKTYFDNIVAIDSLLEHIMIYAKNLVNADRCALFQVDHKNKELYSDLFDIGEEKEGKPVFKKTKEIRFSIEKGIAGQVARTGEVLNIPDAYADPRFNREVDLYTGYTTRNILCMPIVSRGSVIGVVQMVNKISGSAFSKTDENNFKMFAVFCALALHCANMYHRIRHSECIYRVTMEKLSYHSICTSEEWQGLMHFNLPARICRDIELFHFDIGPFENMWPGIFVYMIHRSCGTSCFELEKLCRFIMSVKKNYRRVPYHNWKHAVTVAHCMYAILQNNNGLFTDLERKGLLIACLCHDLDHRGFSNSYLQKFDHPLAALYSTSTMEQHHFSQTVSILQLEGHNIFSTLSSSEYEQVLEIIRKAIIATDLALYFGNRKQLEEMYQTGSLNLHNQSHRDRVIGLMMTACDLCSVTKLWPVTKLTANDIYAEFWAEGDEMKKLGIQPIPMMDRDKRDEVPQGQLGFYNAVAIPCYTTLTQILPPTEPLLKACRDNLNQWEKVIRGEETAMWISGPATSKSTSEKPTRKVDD

[2] = test system: Apomorphine-induced agitation in rats; assay: Inhibition of apomorphine-induced agitation in rats in combination with MP-10; type: in vivo, rat; conditions: SC, Time 60, dose 10; MP-10 (0.63 mg/kg) + apomorphine (1.0 mg/kg) i.v.
Description: Inhibition of Apomorphine-induced Agitation in Rats in combination with MP-10 but the animals were simultaneously challenged with MP-10 (0.63 mg/kg) in addition to apomorphine (1.0 mg/kg) via one injection (2 ml/kg, i.v.), at a fixed time interval (standard 1 h) after s.c. or p.o. dosing of test compound or solvent. Twelve times, every 5 min, the intensity of agitation was scored 0 to 3.

[3] = test system: d-Amphetamine-induced hyperlocomotion in rats; assay: d-Amphetamine-induced hyperlocomotion in rats: potentiation of the effect of MP-10; type: in vivo, rat; conditions: SC, d-amphetamine (1.25 mg/kg, s.c.) + MP-10 (2.5 mg/kg, s.c.)
[4] = test system: Apomorphine-induced agitation in rats; assay: Inhibition of apomorphine-induced agitation in rats (APO)
[5] = test system: d-Amphetamine-induced hyperlocomotion in rats; assay: Inhibition of d-amphetamine-induced hyperlocomotion in rats in combination with Compound A and Compound B (FIGS. 9, 10); type: in vivo; conditions: Rattus norvegicus, sc
Description: (§1) Shown are individual values (open and closed circles for PDE2-i at 0 and 10 mg/kg, respectively) and median values (horizontal lines) for distance traveled per dose group. The dotted horizontal lines represent the criteria adopted for drug-induced effects (<5500 and <1100 cm). In FIG. 9: * p<0.05, ** p<0.01, *** p<0.001 (Bonferroni posttests 0 vs 10 mg/kg).
The dotted horizontal lines represent the critical levels for drug-induced effects (<5500 cm and <1100 cm).
as §1, with “[…] This is also reflected in the listed ED50 values.” for “In FIG. 9: * p<0.05, ** p<0.01, *** p<0.001 (Bonferroni posttests 0 vs 10 mg/kg).”

[6] = test system: Apomorphine-induced agitation in rats; assay: Inhibition of apomorphine-induced agitation in rats in combination with Compound A and Compound B (FIGS. 4, 5); type: in vivo; conditions: Rattus norvegicus, sc
Description: Shown are individual scores (open and closed circles for PDE2-i at 0 and 10 mg/kg, respectively) and median scores (horizontal lines) for agitation per dose group. In FIG. 4: * p<0.05, ** p<0.01, *** p<0.001 (Bonferroni posttests 0 vs 10 mg/kg).
In FIG. 5: * p<0.05 (Dunnett's Multiple Comparison Test vs. 0 mg/kg)
Shown are individual scores (open and closed circles for PDE2-i at 0 and 10 mg/kg, respectively) and median scores (horizontal lines) for agitation per dose group. […] This is also reflected in the listed ED50 values.

In the case of CCOc1ccc(Cl)c(-c2nnc3c(C)nc4ccc(CN(C)C)cc4n23)c1 [Compound B-18], the “PIC50 PDE10” value [1] was 6.5, the “Inh. of agitation < 10 Effect (cumulative agitation score)” value [2] was 17 and the “Distance Total <2500 cm Effect” value ([3]; Time -60, dose 10) was 3369 cm. For the same molecule, the “Dose at max effect” value ([4]; SC) was 10, the “Max effect (lowest median cumulative agitation score)” value ([4]; SC, at the dose at max effect) was 22 and the “LAD (lowest active dose)” value ([4]; rat, in vivo) was over 10.

With CCNCc1ccc2nc(C)c3nnc(-c4cc(OC(C)C)ccc4Cl)n3c2c1 [Compound B-19] the “PIC50 PDE10” value [1] was 5.07.

For CCCCOc1ccc(Cl)c(-c2nnc3c(C)nc4ccc(CNC(C)C)cc4n23)c1 [Compound B-20], the “PIC50 PDE10” value [1] was 5.38.

For CCCCOc1cncc(-c2nnc3c(C)nc4ccc(CNCC)cc4n23)c1 [Compound B-21], the “PIC50 PDE10” value [1] was under 5.

For CCNCc1ccc2nc(C)c3nnc(-c4cc(OCC)ccc4Cl)n3c2c1 [Compound B-22a], the “PIC50 PDE10” value [1] was 6.04.

In the case of CCCCOc1cncc(-c2nnc3c(C)nc4ccc(CNC(C)C)cc4n23)c1 [Compound B-23], the “PIC50 PDE10” value [1] was under 5.

For CCCOc1cncc(-c2nnc3c(C)nc4ccc(CNCC)cc4n23)c1 [Compound B-24], the “PIC50 PDE10” value [1] was under 5.

CCCCOc1ccc(Cl)c(-c2nnc3c(C)nc4ccc(CNC)cc4n23)c1 [Compound B-25] was tested, and the “PIC50 PDE10” value [1] was 5.04 and the “Distance Total <2500 cm Effect” value ([3]; Time -60, dose 10) was 3921 cm.

For Cc1nc2ccc(CN3CCOCC3)cc2n2c(-c3cncc(OCC4CC4)c3)nnc12 [Compound B-26], the “PIC50 PDE10” value ([1]; -log IC50 expressed in mol/L) was 5.44, the “Inh. of agitation < 10 Effect (cumulative agitation score)” value [2] was 17 and the “Distance Total <2500 cm Effect” value ([3]; Time -60, dose 2.5) was 3061 cm. For the same molecule, the “Distance Total <2500 cm Effect” value ([3]; Time -60, dose 10) was 1653 cm.

For CCCCOc1cncc(-c2nnc3c(C)nc4ccc(CNC)cc4n23)c1 [Compound B-28], the “PIC50 PDE10” value [1] was under 5.

With CCCCOc1cc(-c2nnc3c(C)nc4ccc(CN5CCOCC5)cc4n23)cnc1Cl [Compound B-29] the “PIC50 PDE10” value ([1]; -log IC50 expressed in mol/L) was under 5.

For Cc1nc2ccc(CN(C)C)cc2n2c(-c3cncc(OCC4CC4)c3)nnc12 [Compound B-30], the “PIC50 PDE10” value [1] was under 5.

Cc1nc2ccc(CNC(C)C)cc2n2c(-c3cncc(OCC4CC4)c3)nnc12 [Compound B-31] was tested, and the “PIC50 PDE10” value [1] was 5.84.

In the case of CCNCc1ccc2nc(C)c3nnc(-c4cncc(OCC5CC5)c4)n3c2c1 [Compound B-32], the “PIC50 PDE10” value [1] was under 5.

For Cc1nc2c(N3CCOCC3)nccn2c1-c1ccc(C2CCOCC2)nc1 [Compound B], the ED50 ([5]; read-out: ED50 (95% confidence limits) for reducing distance traveled to <1100 cm, PDE10-i s.c., -1 h, co-treatment with B-1a 0 mg/kg) was over 40 mg/kg, the ED50 ([5]; read-out: ED50 (95% confidence limits) for reducing distance traveled to <1100 cm, PDE10-i s.c., -1 h, co-treatment with B-1a 10 mg/kg s.c.) was 16.3 mg/kg and the ED50 ([5]; read-out: ED50 (95% confidence limits) for reducing distance traveled to <5500 cm, PDE10-i s.c., -1 h, co-treatment with B-1a 0 mg/kg) was 3.1 mg/kg. The ED50 ([5]; read-out: ED50 (95% confidence limits) for reducing distance traveled to <5500 cm, PDE10-i s.c., -1 h, co-treatment with B-1a 10 mg/kg s.c.) was 2.04 mg/kg, the ED50 ([6]; read-out: ED50 (95% confidence limits) for reducing agitation score to <5, PDE10-i s.c., -1 h, co-treatment with B-1a 0 mg/kg) was at least 40 mg/kg and the ED50 ([6]; read-out: ED50 (95% confidence limits) for reducing agitation score to <5, PDE10-i s.c., -1 h, co-treatment with B-1a 10 mg/kg s.c.) was 10.8 mg/kg. The ED50 ([6]; read-out: ED50 (95% confidence limits) for reducing agitation score to <10, PDE10-i s.c., -1 h, co-treatment with B-1a 0 mg/kg) was 32 mg/kg, the ED50 ([6]; read-out: ED50 (95% confidence limits) for reducing agitation score to <10, PDE10-i s.c., -1 h, co-treatment with B-1a 10 mg/kg s.c.) was 6.2 mg/kg and the ED50 ([6]; read-out: ED50 (95% confidence limits) for reducing agitation score to <21, PDE10-i s.c., -1 h, co-treatment with B-1a 0 mg/kg) was 2.71 mg/kg. The ED50 ([6]; read-out: ED50 (95% confidence limits) for reducing agitation score to <21, PDE10-i s.c., -1 h, co-treatment with B-1a 10 mg/kg s.c.) was 2.36 mg/kg.
